One assay concerns the target T1, Recombinant IKKα (Homo sapiens, UniProt O15111).
T1 construct: purchased Millipore, Dundee, UK
T1 sequence (O15111 1-745): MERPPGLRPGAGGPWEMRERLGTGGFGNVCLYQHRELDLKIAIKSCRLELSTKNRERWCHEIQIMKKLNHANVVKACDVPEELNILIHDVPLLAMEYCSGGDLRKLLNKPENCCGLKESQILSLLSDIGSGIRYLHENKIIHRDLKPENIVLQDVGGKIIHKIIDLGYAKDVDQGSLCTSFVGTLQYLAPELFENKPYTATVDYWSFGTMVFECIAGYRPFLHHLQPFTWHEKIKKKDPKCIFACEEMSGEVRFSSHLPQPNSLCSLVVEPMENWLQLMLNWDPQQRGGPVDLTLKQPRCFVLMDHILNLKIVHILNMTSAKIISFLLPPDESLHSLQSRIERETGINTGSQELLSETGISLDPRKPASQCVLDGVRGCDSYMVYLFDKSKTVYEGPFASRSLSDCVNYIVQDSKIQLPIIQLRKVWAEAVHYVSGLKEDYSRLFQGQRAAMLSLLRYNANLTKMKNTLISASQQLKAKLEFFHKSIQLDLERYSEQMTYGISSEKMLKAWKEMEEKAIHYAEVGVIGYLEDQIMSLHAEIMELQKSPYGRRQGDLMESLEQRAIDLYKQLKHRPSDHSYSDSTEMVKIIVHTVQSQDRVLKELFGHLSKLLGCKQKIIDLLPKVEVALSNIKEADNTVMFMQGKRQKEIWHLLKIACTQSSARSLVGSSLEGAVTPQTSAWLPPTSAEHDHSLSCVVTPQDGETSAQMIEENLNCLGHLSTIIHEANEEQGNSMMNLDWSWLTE
Nature of the assay: DELFIA IKKα kinase assay (apparent Ki, Cheng-Prusoff). It is filed as biochemical. The method in brief:
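DELFIA time-resolved fluorescence (ex 340/em 615 nm) quantified phosphorylation of a biotinylated IκB-α Ser32 peptide (0.375 μM) by 37 nM recombinant IKKα or IKKβ. Reactions used 40 μM ATP, Tris pH 7.5 buffer with MgCl2, DTT and BSA, 60 min at 30° C. Cheng-Prusoff equation gave apparent Ki.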

The target of the next assay is T2, CHUK (IKK alpha) (Homo sapiens, UniProt O15111).
T2 construct: purchased Life Technologies (assay performed by the vendor)
T2 sequence (O15111 1-745): T1 sequence (O15111 1-745)
Nature of the assay: Adapta IKKα assay (TR-FRET ADP formation, Life Technologies). In kind it is biochemical. The protocol: IKKα and IKKβ inhibitory activity was determined using three different assays: a dissociation enhanced ligand fluorescent immunoassay (DELFIA) based on the protocol of HTScan™ IKKβ Kinase Assay (Cell Signaling Technology, USA); an Adapta IKKα assay (performed by Life Technologies); a Z′-LYTE™ IKKβ assay (performed by Life Technologies).
The reaction was performed in low-volume white 384-well plates (Corning model 4512).
The test compounds were screened in 1% DMSO (final) in the well. For 10 point titrations, 3-fold serial dilutions were conducted from the starting concentration of 50 mM.
The 2× CHUK (IKK alpha) kinase was prepared in 50 mM HEPES pH 7.5, 0.01% BRIJ-35, 10 mM MgCl2 and 1 mM EGTA. The final 10 μL kinase mixture consisted of 50-250 ng CHUK (IKK alpha) in 32.5 mM HEPES pH 7.5, 0.005% BRIJ-35, 5 mM MgCl2 and 0.5 mM EGTA. No substrate was required, as the assay measures the ability of a compound to inhibit the kinase's intrinsic ATPase activity.
5 μL of 2× Kinase mixture was incubated with 2.5 μL of ATP solution diluted to a 4×working concentration in water, in the presence of 100 nL of 100× test compound in 100% DMSO and 2.4 μL of 30 mM HEPES buffer.
After 30-second plate shake and 1-minute centrifuge at 1000×g, the resulting kinase reaction was allowed to incubate for 1 hour at room temperature before 5 μL of Detection Mix was added.
The Detection Mix, previously prepared in TR-FRET Dilution Buffer, consisted of EDTA (30 mM), Eu-anti-ADP antibody (6 nM) and an Alexa Fluor™ 647 labelled ADP tracer. The Detection Mix contained the EC60 concentration of tracer for 5-150 μM ATP.
After 30-second plate shake and 1-minute centrifuge at 1000×g, the Detection Mix was allowed to equilibrate at room temperature for 1 hour. Then the plate was read using a fluorescence plate reader configured for Adapta™ TR-FRET and the data analysed.
ADP formation was determined by calculating the emission ratio from the assay well. Therefore, the emission ratio was calculated by dividing the intensity of the tracer (acceptor) emission by the intensity of the Eu (donor) emission at 615 nm as shown in the equation below.
The IKKα and IKKb figures quoted in italicised form are from the Adapta assay described above.
On the technique in general: TR-FRET usually uses a lanthanide donor and a delayed reading to cut background.

Where [1] appears, read: non-italicised figure: DELFIA assay.
The mark [2] stands for this setting: DELFIA assay (first line of an example).
Where [3] appears, read: Adapta assay (second line of an example).

Ki and IC50 data for 26 compounds are collected here from patent publication US20250304576A1 (Cancer Research Technology Limited, priority 2022, published 2025).

One may read the IC50 as the concentration that gives 50% inhibition. A higher IC50 goes with a need for much substance.

Structures are written as SMILES.

As to `CC(C)(C)C#Cc1c(-c2ccc3[nH]nc(N)c3c2)ccnc1N` [Example 72, 5-(2-Amino-3-(3,3-dimethylbut-1-yn-1-yl)pyridine-4-yl)-1H-indazol-3-amine], the Ki at Recombinant IKKα (setting [1]) is 6 nM. This compound also showed an IC50 against CHUK (IKK alpha) (Adapta assay) of 1 nM.
The like results for `Nc1nccc(-c2ccc3[nH]nc(N)c3c2)c1C#CC1CCCC1` [Example 73, 5-(2-Amino-3-(cyclopentylethynyl)pyridine-4-yl)-1H-indazol-3-amine] were, in that order, 12 nM and 2 nM.
The like results for `Nc1nccc(-c2ccc3[nH]nc(N)c3c2)c1C#CC1CCCCC1` [Example 74, 5-(2-Amino-3-(cyclohexylethynyl)pyridine-4-yl)-1H-indazol-3-amine] were, in that order, 12 nM and 3 nM.
The matching figures for `Nc1nccc(-c2ccc3[nH]nc(N)c3c2)c1C#Cc1ccccc1` [Example 75, 5-(2-Amino-3-(phenylethynyl)pyridine-4-yl)-1H-indazol-3-amine]: 10 nM and 1 nM.
On to `Nc1nccc(-c2ccc3[nH]nc(N)c3c2)c1C#CCO` [Example 83, 3-(2-Amino-4-(3-amino-1H-indazol-5-yl)pyridine-3-yl)prop-2-yn-1-ol], for which, at Recombinant IKKα (setting [1]), the Ki amounted to 6 nM. Moreover, the IC50 at CHUK (IKK alpha) (Adapta assay) stood at 1 nM.
The like results for `Nc1nccc(-c2ccc3[nH]nc(N)c3c2)c1C#CCCO` [Example 84, 4-(2-Amino-4-(3-amino-1H-indazol-5-yl)pyridine-3-yl)but-3-yn-1-ol] were, in that order, 1 nM and 1 nM.
The like results for `Nc1nccc(-c2ccc3[nH]nc(N)c3c2)c1C#CCCCO` [Example 85, 5-(2-Amino-4-(3-amino-1H-indazol-5-yl)pyridine-3-yl)pent-4-yn-1-ol] were, in that order, 4 nM and 1 nM.
The like results for `CC(C)(O)C#Cc1c(-c2ccc3[nH]nc(N)c3c2)ccnc1N` [Example 87, 4-(2-Amino-4-(3-amino-1H-indazol-5-yl)pyridine-3-yl)-2-methylbut-3-yn-2-ol] were, in that order, 8 nM and 4 nM.
On to `CC(C)(C)OCC#Cc1c(-c2ccc3[nH]nc(N)c3c2)ccnc1N` [Example 88, 5-(2-Amino-3-(3-(tert-butoxy)prop-1-yn-1-yl)pyridine-4-yl)-1H-indazol-3-amine], for which the Ki on Recombinant IKKα (setting [1]) came out at 133 nM. On CHUK (IKK alpha) (Adapta assay), this compound had an IC50 of 8 nM.
The matching figures for `Nc1nccc(-c2ccc3[nH]nc(N)c3c2)c1C#CC1(O)CCCCC1` [Example 90, 1-((2-Amino-4-(3-amino-1H-indazol-5-yl)pyridine-3-yl)ethynyl)cyclohexan-1-ol]: 36 nM and 3 nM.
On to `Nc1nccc(-c2ccc3[nH]nc(N)c3c2)c1C#CC1(O)CCCCCC1` [Example 91, 1-((2-Amino-4-(3-amino-1H-indazol-5-yl)pyridine-3-yl)ethynyl)cycloheptan-1-ol], for which, at Recombinant IKKα (setting [1]), the Ki was found to be 105 nM. The same compound came in with an IC50 against CHUK (IKK alpha) (Adapta assay) of 7 nM.
Turning to `CC(C)(N)C#Cc1c(-c2ccc3[nH]nc(N)c3c2)ccnc1N` [Example 92, 5-(2-Amino-3-(3-amino-3-methylbut-1-yn-1-yl)pyridin-4-yl)-1H-indazol-3-amine], the Ki on Recombinant IKKα (setting [1]) is 7 nM. Moreover, the IC50 on CHUK (IKK alpha) (Adapta assay) was 6 nM.
As for `Nc1nccc(-c2ccc3[nH]nc(N)c3c2)c1C#CCCN1CCCCC1` [Example 93, 5-(2-Amino-3-(4-(piperidin-1-yl)but-1-yn-1-yl)pyridin-4-yl)-1H-indazol-3-amine], the Ki at Recombinant IKKα (setting [1]) worked out at 32 nM. The compound also yielded an IC50 on CHUK (IKK alpha) (Adapta assay) of 7 nM.
As for `Nc1nccc(-c2ccc3[nH]nc(N)c3c2)c1C#CCCCN1CCCCC1` [Example 95, 5-(2-Amino-3-(5-(piperidin-1-yl)pent-1-yn-1-yl)pyridin-4-yl)-1H-indazol-3-amine], the Ki at Recombinant IKKα (setting [1]) stood at 91 nM. At CHUK (IKK alpha) (Adapta assay), the half-inhibitory concentration (IC50) is 12 nM.
The matching figures for `Nc1nccc(-c2ccc3[nH]nc(N)c3c2)c1C#CCCCN1CCOCC1` [Example 96, 5-(2-Amino-3-(5-morpholinopent-1-yn-1-yl)pyridin-4-yl)-1H-indazol-3-amine]: 350 nM and 21 nM.
`Nc1nccc(-c2ccc3[nH]nc(N)c3c2)c1C#CCCC(=O)N1CCOCC1` [Example 99, 5-(2-Amino-4-(3-amino-1H-indazol-5-yl)pyridine-3-yl)-1-morpholinopent-4-yn-1-one]: on Recombinant IKKα (setting [1]), the Ki was 15 nM. At CHUK (IKK alpha) (Adapta assay), this compound registered an IC50 of 3 nM.
The matching figures for `Nc1cc(-c2cc(-c3ccccc3)c3[nH]nc(N)c3c2)ccn1` [Example 104, 5-(2-Aminopyridin-4-yl)-7-phenyl-1H-indazol-3-amine]: 54 nM and 3 nM.
The like results for `Nc1cc(-c2cc(-c3ccoc3)c3[nH]nc(N)c3c2)ccn1` [Example 129, 5-(2-Aminopyridin-4-yl)-7-(furan-3-yl)-1H-indazol-3-amine] were, in that order, 10 nM and 5 nM.
The matching figures for `CC(C)(C)C#Cc1cc(-c2ccnc(N)c2)cc2c(N)n[nH]c12` [Example 137, 5-(2-Aminopyridin-4-yl)-7-(3,3-dimethylbut-1-yn-1-yl)-1H-indazol-3-amine]: 53 nM and 11 nM.
Consider `CC(C)(O)C#Cc1cc(-c2ccnc(N)c2)cc2c(N)n[nH]c12` [Example 140, 4-(3-Amino-5-(2-aminopyridin-4-yl)-1H-indazol-7-yl)-2-methylbut-3-yn-2-ol], for which, on Recombinant IKKα (setting [1]), the Ki was 281 nM. The compound also yielded an IC50 against CHUK (IKK alpha) (Adapta assay) of 39 nM.
For `C#Cc1cc(-c2ccnc3[nH]ccc23)cc2c(N)n[nH]c12` [Example 200, 7-Ethynyl-5-(1H-pyrrolo[2,3-b]pyridin-4-yl)-1H-indazol-3-amine], the Ki on Recombinant IKKα (setting [2]) amounted to 26 nM. The compound further showed a half-inhibitory concentration (IC50) at CHUK (IKK alpha) (setting [3]) of 3.3 nM.
The like results for `CC(C)(C)C#Cc1cc(-c2ccnc3[nH]ccc23)cc2c(N)n[nH]c12` [Example 201, 7-(3,3-Dimethylbut-1-yn-1-yl)-5-(1H-pyrrolo[2,3-b]pyridin-4-yl)-1H-indazol-3-amine] were, in that order, 62 nM and 11 nM.
In the case of `Nc1n[nH]c2c(C#CC3CC3)cc(-c3ccnc4[nH]ccc34)cc12` [Example 202, 7-(Cyclopropylethynyl)-5-(1H-pyrrolo[2,3-b]pyridin-4-yl)-1H-indazol-3-amine], the Ki on Recombinant IKKα (setting [2]) came to 13 nM. Moreover, the 50% inhibitory concentration (IC50) on CHUK (IKK alpha) (setting [3]) worked out at 2 nM.
The matching figures for `Nc1n[nH]c2c(C#CC3CCCC3)cc(-c3ccnc4[nH]ccc34)cc12` [Example 203, 7-(Cyclopentylethynyl)-5-(1H-pyrrolo[2,3-b]pyridin-4-yl)-1H-indazol-3-amine]: 26 nM and 16 nM.
The matching figures for `Nc1n[nH]c2c(C#CC3CCCCC3)cc(-c3ccnc4[nH]ccc34)cc12` [Example 204, 7-(Cyclohexylethynyl)-5-(1H-pyrrolo[2,3-b]pyridin-4-yl)-1H-indazol-3-amine]: 169 nM and 198 nM.
For `CC(C)(O)C#Cc1cc(-c2ccnc3[nH]ccc23)cc2c(N)n[nH]c12` [Example 206, 4-(3-Amino-5-(1H-pyrrolo[2,3-b]pyridin-4-yl)-1H-indazol-7-yl)-2-methylbut-3-yn-2-ol], at Recombinant IKKα (setting [2]), the Ki is 81 nM. Further, at CHUK (IKK alpha) (setting [3]), the IC50 amounted to 9 nM.
